A short description of one data set: in vivo. The following applies: Sprague Dawley, rat, iv, 10 ug/kg, Plasma Concentration.
For data set [1] the following is noted: rat, in vivo, iv, 10 ug/kg.
Experimental: (§1) Pharmacokinetic parameters were determined for the following 5 different extended GLP-1 peptides:
(§2) Parameters were determined following a single intravenous dose of 10 μg/kg in four different rats.

Results on one sequence are retold here after US7482321B2, “Extended glucagon-like peptide-1 analogs” (Eli Lilly and Company, priority 2002, dated 2009).

Ends that are not written are not given here. A value given as a limit tells only on which side of the number the result lay.

In general, AUC(0-t) refers to the area under the concentration-time curve up to a stated or last time point. The low end stands for low exposure, the high end for high exposure. By clearance is commonly meant a measure of how efficiently the substance is removed, as volume per time. What is called Cmax is the peak of the concentration-time curve. The term Vd denotes the apparent volume that relates the amount in the body to the concentration in plasma or blood. Read a high Vd as extensive tissue distribution. For orientation: half-life means the time needed for the level to fall by half in the phase considered. A lower half-life goes with rapid decline.

Experimental for in vivo: as §1, §2

As to “HVEGTFTSDWSSYLEEQAAKEFIAWLIKGRGSSGAPPPS [Compound 5]”, in the data set “in vivo”, the level at 5 min is 35.9 ng/mL, the level at 0.25 h stood at 16.1 ng/mL and the level at 2 h is below 0.15 ng/mL. For the same sequence, the AUC(0-t) in data set [1] (AUC0-last) was 12.5 ng·h/mL. The clearance in data set [1] (Cl) worked out at 13.4 mL/min/kg. For the same sequence, the concentration in data set [1] (Cmax) peaked (Cmax) at 35.9 ng/mL. The sequence also returned a Vd in data set [1] (Vss) of 0.179 L/kg. The same sequence displayed a half-life in data set [1] (t½) of 11.9 min.
